Results as given in patent publication US20020026053A1, “Novel 3-(substituted) -2- indolinones compounds and use thereof as inhibitors of protein kinase activity” (priority 1997, published 2002).

Biological target: T1, Met receptor (EGFR/Met chimeric cells, EMR) (Homo sapiens, UniProt P08581)
T1 construct: expressed in transfected cells; the other entry of the earlier key: EGFR (P00533, Epidermal growth factor receptor)
Assay: Met Autophosphorylation Assay
Format: biochemical
Conditions: protocol P.130
Outline: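 Transiently transfected EGFR/Met chimeric (EMR) cells were lysed in HNTG with 1 mM PMSF. Met was captured on plates coated with goat anti-rabbit IgG, then rabbit anti-Met (C-28), using 90 μg lysate/100 μl for 60 min at room temperature. Phosphotyrosine was read by ELISA.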

T1 sequence (P08581 with tags, fused parts or gaps): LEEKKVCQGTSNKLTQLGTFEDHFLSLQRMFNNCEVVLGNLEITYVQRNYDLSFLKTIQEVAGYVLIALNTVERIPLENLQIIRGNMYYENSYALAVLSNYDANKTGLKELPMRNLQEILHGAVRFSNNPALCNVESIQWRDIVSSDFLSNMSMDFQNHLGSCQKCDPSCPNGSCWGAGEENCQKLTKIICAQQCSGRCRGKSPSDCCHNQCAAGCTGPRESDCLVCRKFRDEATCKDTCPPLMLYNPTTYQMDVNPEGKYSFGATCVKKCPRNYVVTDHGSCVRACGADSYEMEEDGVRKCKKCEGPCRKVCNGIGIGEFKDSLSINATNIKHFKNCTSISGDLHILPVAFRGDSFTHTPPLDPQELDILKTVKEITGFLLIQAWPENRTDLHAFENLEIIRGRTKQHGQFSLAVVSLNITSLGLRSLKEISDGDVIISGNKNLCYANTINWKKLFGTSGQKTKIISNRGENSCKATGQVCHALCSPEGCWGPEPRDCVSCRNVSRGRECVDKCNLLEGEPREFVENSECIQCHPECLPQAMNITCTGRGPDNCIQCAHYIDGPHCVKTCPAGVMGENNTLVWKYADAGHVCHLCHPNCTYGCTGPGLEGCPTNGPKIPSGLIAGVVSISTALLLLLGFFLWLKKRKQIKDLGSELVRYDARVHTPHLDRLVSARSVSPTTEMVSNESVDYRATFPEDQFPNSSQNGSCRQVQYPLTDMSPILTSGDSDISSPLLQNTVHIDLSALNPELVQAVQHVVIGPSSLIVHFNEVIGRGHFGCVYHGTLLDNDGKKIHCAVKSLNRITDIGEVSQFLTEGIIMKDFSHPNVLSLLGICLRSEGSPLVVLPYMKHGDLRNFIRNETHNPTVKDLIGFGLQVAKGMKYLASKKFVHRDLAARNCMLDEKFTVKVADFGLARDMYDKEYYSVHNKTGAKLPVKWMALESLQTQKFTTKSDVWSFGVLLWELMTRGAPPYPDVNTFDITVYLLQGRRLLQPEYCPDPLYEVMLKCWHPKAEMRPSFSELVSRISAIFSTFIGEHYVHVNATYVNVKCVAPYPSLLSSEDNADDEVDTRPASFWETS

## Cc1ccc(C)c(C=C2C(=O)Nc3c(Br)cc(Br)c(C)c32)c1 [10737/H07]
  Met Kinase % Inhibition (P.130): 51.8%

## Cc1c(Br)cc(Br)c2c1C(=Cc1ccc3ccccc3c1)C(=O)N2 [10737/H08]
  Met Kinase % Inhibition (P.130): 28.0%

## Cc1c(Br)cc(Br)c2c1C(=Cc1ccc(Oc3ccccc3)cc1)C(=O)N2 [10737/H09]
  Met Kinase % Inhibition (P.130): 38.1%

## Cc1c(Br)cc(Br)c2c1C(=Cc1cccc(Oc3ccc(C(C)(C)C)cc3)c1)C(=O)N2 [10737/H10]
  Met Kinase % Inhibition (P.130): 51.6%

## Cc1c(Br)cc(Br)c2c1C(=Cc1cccc(Oc3cccc(C(F)(F)F)c3)c1)C(=O)N2 [10737/H11]
  Met Kinase % Inhibition (P.130): 31.7%

## Cc1ccc(Oc2cccc(C=C3C(=O)Nc4c(Br)cc(Br)cc43)c2)cc1 [10738/A02]
  Met Kinase % Inhibition (P.130): 10.0%

## O=C1Nc2c(Br)cc(Br)cc2C1=Cc1cccc(Oc2ccc(Cl)c(Cl)c2)c1 [10738/A03]
  Met Kinase % Inhibition (P.130): 20.7%

## COc1ccc(C=C2C(=O)Nc3c(Br)cc(Br)cc32)cc1O [10738/A04]
  Met Kinase % Inhibition (P.130): 55.9%

## O=C1Nc2c(Br)cc(Br)cc2C1=Cc1cc(O)ccc1[N+](=O)[O-] [10738/A05]
  Met Kinase % Inhibition (P.130): 33.1%

## O=C1Nc2c(Br)cc(Br)cc2C1=Cc1cccc(O)c1O [10738/A06]
  Met Kinase % Inhibition (P.130): 95.8%

## O=C1Nc2c(Br)cc(Br)cc2C1=Cc1cc(O)cc(O)c1 [10738/A07]
  Met Kinase % Inhibition (P.130): 72.7%

## O=C1Nc2c(Br)cc(Br)cc2C1=Cc1ccc(Cl)c(Cl)c1 [10738/A08]
  Met Kinase % Inhibition (P.130): 12.2%

## COc1ccccc1C=C1C(=O)Nc2c(Br)cc(Br)cc21 [10738/A09]
  Met Kinase % Inhibition (P.130): 20.2%

## CC(C)c1ccc(C=C2C(=O)Nc3c(Br)cc(Br)cc32)cc1 [10738/A10]
  Met Kinase % Inhibition (P.130): 35.7%

## CCCOc1ccc(C=C2C(=O)Nc3c(Br)cc(Br)cc32)cc1 [10738/A11]
  Met Kinase % Inhibition (P.130): 41.7%

## Cc1ccc(Oc2cccc(C=C3C(=O)Nc4ccc(I)cc43)c2)cc1 [10738/B02]
  Met Kinase % Inhibition (P.130): 78.7%

## O=C1Nc2ccc(I)cc2C1=Cc1cccc(Oc2ccc(Cl)c(Cl)c2)c1 [10738/B03]
  Met Kinase % Inhibition (P.130): 74.0%

## COc1ccc(C=C2C(=O)Nc3ccc(I)cc32)cc1O [10738/B04]
  Met Kinase % Inhibition (P.130): 70.7%

## O=C1Nc2ccc(I)cc2C1=Cc1cc(O)ccc1[N+](=O)[O-] [10738/B05]
  Met Kinase % Inhibition (P.130): 67.6%

## O=C1Nc2ccc(I)cc2C1=Cc1cccc(O)c1O [10738/B06]
  Met Kinase % Inhibition (P.130): 83.6%

## O=C1Nc2ccc(I)cc2C1=Cc1cc(O)cc(O)c1 [10738/B07]
  Met Kinase % Inhibition (P.130): 66.7%

## O=C1Nc2ccc(I)cc2C1=Cc1ccc(Cl)c(Cl)c1 [10738/B08]
  Met Kinase % Inhibition (P.130): 70.9%

## COc1ccccc1C=C1C(=O)Nc2ccc(I)cc21 [10738/B09]
  Met Kinase % Inhibition (P.130): 79.4%

## CC(C)c1ccc(C=C2C(=O)Nc3ccc(I)cc32)cc1 [10738/B10]
  Met Kinase % Inhibition (P.130): 70.7%

## CCCOc1ccc(C=C2C(=O)Nc3ccc(I)cc32)cc1 [10738/B11]
  Met Kinase % Inhibition (P.130): 75.4%

## Cc1ccc(Oc2cccc(C=C3C(=O)Nc4ccc(Br)c(C)c43)c2)cc1 [10738/C02]
  Met Kinase % Inhibition (P.130): 4.3%

## Cc1c(Br)ccc2c1C(=Cc1cccc(Oc3ccc(Cl)c(Cl)c3)c1)C(=O)N2 [10738/C03]
  Met Kinase % Inhibition (P.130): 22.7%

## COc1ccc(C=C2C(=O)Nc3ccc(Br)c(C)c32)cc1O [10738/C04]
  Met Kinase % Inhibition (P.130): 53.7%

## Cc1c(Br)ccc2c1C(=Cc1cc(O)ccc1[N+](=O)[O-])C(=O)N2 [10738/C05]
  Met Kinase % Inhibition (P.130): 34.2%

## Cc1c(Br)ccc2c1C(=Cc1cccc(O)c1O)C(=O)N2 [10738/C06]
  Met Kinase % Inhibition (P.130): 92.2%

## Cc1c(Br)ccc2c1C(=Cc1cc(O)cc(O)c1)C(=O)N2 [10738/C07]
  Met Kinase % Inhibition (P.130): 51.2%

## Cc1c(Br)ccc2c1C(=Cc1ccc(Cl)c(Cl)c1)C(=O)N2 [10738/C08]
  Met Kinase % Inhibition (P.130): 39.5%

## COc1ccccc1C=C1C(=O)Nc2ccc(Br)c(C)c21 [10738/C09]
  Met Kinase % Inhibition (P.130): 8.9%
